“And” between values parts separate entries of the source, which are not always exact repeats. Equal values may be shown once.
Tests used:
[1] = tested on: T. brucei 427 bloodstream form mitochondria; experiment: Mitochondrial membrane potential in T. brucei (TMRE, flow cytometry); format: cell-based, Trypanosoma brucei; settings: 24 h at 3× EC50
Procedure: The mitochondrial membrane potential of T. brucei 427 bloodstream form was assessed using the fluorescent probe TMRE (Thermo Fisher Scientific) as described in ref . […] Untreated cells and cells preincubated with a 50 μM CCCP uncoupler for 30 min were used as negative and positive controls, respectively. Approximately 1 × 10^6 cells were incubated with 60 nM TMRE for 30 min, washed 1× with sterile PBS, and 5,000 events were measured on a Guava EasyCyte 8HT flow cytometer (Luminex) using a 488 nm excitation laser and a 583/26 nm detector. Median fluorescence was plotted against an untreated culture using Prism 8.0 (GraphPad Software), and statistical significance was determined using RM one-way ANOVA with Geisser–Greenhouse correction. The experiment was performed in three biologically independent replicates.

[2] = tested on: Toxoplasma gondii tachyzoites (RH strain), intracellular stages; experiment: T. gondii lytic cycle plaque assay in HFF monolayers; format: cell-based; settings: for EC50: intracellular stages, plaque assay in HFFs, 7 days, n ≥ 3; for T. gondii selectivity: relative to fibroblasts
Procedure: T. gondii tachyzoites of the RH strain were routinely maintained through passages in a human foreskin fibroblasts (HFFs) monolayer (ATCC CRL-1634). HFFs and parasites were cultured in standard Dulbecco’s Modified Eagle Medium (DMEM), supplemented with 5% decomplemented fetal bovine serum (FBS), 2 mM L-glutamine, 100 U/mL penicillin, and 100 μg/mL streptomycin (Gibco) at 37 °C and with 5% CO2 in an incubator with a controlled atmosphere.
The lytic cycle of T. gondii tachyzoites was assessed by a plaque assay as described previously. Briefly, tachyzoites were allowed to invade monolayers of HFFs for 3 h before addition of the compounds or the DMSO vehicle and were subsequently cultivated for 7 days at 37 °C and 5% CO2. They were then fixed with 4% (w/v) paraformaldehyde (PFA, diluted in phosphate-buffered saline (PBS)) for 20 min and stained with a 0.1% crystal violet solution (V5265, Sigma-Aldrich), washed, and air-dried before imaging under an Olympus MVX10 microscope.
Figure S1. EC50 determination of selected compounds in Toxoplasma.
B) EC50 curves based on plaque
area measured from three independent plaque assays. Data are mean ± standard deviation. C)
vacuoles were counted for each con dition. Values represented are mean ± standard deviation of […]

[3] = tested on: Trypanosoma gambiense bloodstream forms; experiment: Drug sensitivity assay, dose–response curves, T. gambiense; format: cell-based; settings: for EC50: bloodstream forms, mean, n ≥ 3; for T. gambiense selectivity: relative to fibroblasts
From the text: (§1) Human fibroblasts, T. brucei, T. gambiense, P. falciparum, L. mexicana, and B. divergens were cultivated as described previously, and dose–response curves were obtained by their cultivation on 96 well plates in a 2-fold seriel dilution of the appropriate drug.

Human BJ Fibroblast = experiment: Drug sensitivity assay, dose–response curves, human BJ fibroblasts; format: cell-based; settings: mean, n ≥ 3
From the text: as §1

[4] = tested on: Babesia divergens intracellular stages; experiment: Drug sensitivity assay, dose–response curves, B. divergens; format: cell-based; settings: for EC50: intracellular stages, mean, n ≥ 3; for B. divergens selectivity: relative to fibroblasts
From the text: as §1

[5] = tested on: Plasmodium falciparum intracellular stages; experiment: Drug sensitivity assay, dose–response curves, P. falciparum; format: cell-based; settings: for EC50: intracellular stages, mean, n ≥ 3; for P. falciparum selectivity: relative to fibroblasts
From the text: as §1

T. gondii mitochondrion = experiment: Toxoplasma immunofluorescence assay of organelle morphology; format: cell-based, Toxoplasma gondii; settings: 24 h at 3× EC50; for morphology of the T. gondii mitochondrion: DFX at 60 nM
Procedure: For IFAs to assess organelle morphology, coverslips seeded with HFFs were infected with T. gondii tachyzoites, and 3 h later, compounds were added (at 3 times their respective EC50). Intracellular parasites and host cell monolayers were then fixed 24 h later with 4% (w/v) PFA (diluted in PBS) for 20 min. After fixation, cells were permeabilized with 0.3% (v/v) Triton X-100 (diluted in PBS) for 10 min. Coverslips were blocked with 2% (w/v) bovine serum albumin (BSA) for 1 h prior to immunolabeling with a primary antibody for 1 h. After 3 washes in PBS, a corresponding secondary antibody was incubated for 1 h. Coverslips were then incubated with 1 μg/mL of Hoechst stain for 5 min before 3 washes in PBS and, finally, mounted using Immu-Mount (Thermo Fisher) onto microscope slides. Primary antibodies used were prepared in 2% BSA (diluted in PBS) and used at the following concentrations: the apicoplast was stained using rabbit anti-PDH-E2 (1:500), the mitochondrion was stained using mouse anti-F1β ATPase (1:1000, gift of P. Bradley). Anti-mouse and anti-rabbit secondary antibodies were all from Thermo Fisher and were diluted at 1:4000. Image acquisition was performed with a Zeiss Axio Observer inverted microscope equipped with a Zeiss Axiocam 712 camera and 63×/1.4 or 100×/1.4 Oil Plan Achromat objectives. Images were processed with Zen Blue v3.6 software (Zeiss). Z-stack acquisitions were processed by a maximum-intensity orthogonal projection. Adjustments of brightness and contrast were applied uniformly, and paired images were acquired with the same exposure time. Quantifications of mitochondrial morphology were performed by microscopic observation of a series of at least 100 parasites, and data from three independent biological replicates was acquired and plotted using Prism 8.0 (GraphPad Software). Statistical significance was determined using one-way ANOVA with Tukey’s multiple-comparison test.

[6] = tested on: Toxoplasma tachyzoites mitochondrion; experiment: Toxoplasma mitochondrial membrane potential (MitoTracker, cytometry and microscopy); format: cell-based, Toxoplasma gondii; settings: 24 h at 3× EC50; for T. gondii mitochondrial membrane potential, flow cytometric quantification of Mitotracker labeling: DFX at 60 nM; for Mitotracker staining of T. gondii, microscopic observation: FCCP as uncoupler control
Procedure: We used the MitoTracker Deep Red FM fluorescent probe (Invitrogen) to assess the mitochondrial membrane potential in Toxoplasma tachyzoites. […] After another 24 h of culture at 37 °C and 5% CO2, Mitotracker labeling was performed as described in the protocol provided by the manufacturer, with a 45 min incubation at 37 °C and 5% CO2 of the reconstituted dye diluted to 1/1000 in culture medium. Parasites were then fixed for 30 min in 4% (w/v) PFA (diluted in PBS), washed twice in PBS, scraped, syringed (with a 25 G needle), filtered on a 40 μm membrane, and resuspended in 1 mL of PBS. Parasites were then analyzed with an Aurora spectral cytometer (Cytek), using a 633 nm excitation laser and a 665 nm detector. 10,000 events were recorded. Mean fluorescence was plotted against vehicle-treated culture parasites using Prism 8.0 (GraphPad Software), and statistical significance was determined using one-way ANOVA with Tukey’s multiple-comparison test. The experiment was performed for three biologically independent replicates. For the membrane depolarization control, parasites were treated with 10 μM FCCP for 30 min prior to and during incubation with the Mitotracker dye.
Intracellular parasites and the host cell monolayer were then fixed 24 h later with 4% (w/v) PFA (diluted in PBS) for 20 min, and after fixation, cells were permeabilized with 0.3% (v/v) Triton X-100 (diluted in PBS) for 10 min. Costaining with the anti-F1β ATPase mitochondrial marker was performed as described below.

[7] = tested on: Leishmania mexicana axenic amastigotes; experiment: Drug sensitivity assay, dose–response curves, L. mexicana; format: cell-based; settings: for EC50: axenic amastigotes, mean, n ≥ 3; for L. mexicana selectivity: relative to fibroblasts
From the text: as §1

T. gondii tachyzoites = settings: 24 h treatment at 3× EC50
Procedure: Parasites were allowed to invade an HFF monolayer on coverslips for 3 h before addition of the compounds (at 3 times their respective EC50) and left to grow for 24 h before being fixed and performing parasites immunodetection was by IFA with a mouse anti-SAG1 antibody, as described previously. The number of parasites per vacuole was counted and scored. Independent experiments were conducted 3 times, and 200 random vacuoles were counted for each condition.
Replication assay of T. gondii tachyzoites, which were allowed to invade HFF -coated coverslips,
then treated for 24 h with the compounds at 3 times the EC50 or DMSO vehicle, after which number
of parasites per vacuole was quantified for each condition and expressed as a percentage, 200
the compounds, using two -way ANOVA with Dunnett’s multiple comparison test.

[8] = tested on: T. brucei 427 bloodstream forms, protein-bound iron; experiment: Iron distribution in T. brucei (55Fe, blue native electrophoresis, phosphor imaging); format: cell-based, Trypanosoma brucei; settings: T. brucei preincubated with 55Fe; 8 h exposure; EC90 concentrations for 14 and 15
Procedure: The assay was performed as described in ref . T. brucei 427 bloodstream forms were grown in HMI-9 medium supplemented with 0.5 μM ^55Fe (29 600 MBq mg^–1) in the form of ferric citrate (1:20) and incubated for 24 h. […] Untreated cells were used as a control. After incubation, the cells were harvested by centrifugation and washed three times with NaCl–HEPES buffer (140 mM NaCl, 10 mM HEPES, pH 7.4). Cells were lysed by sonication in NaCl–HEPES buffer containing 1% digitonin and cOmplete EDTA-free protease inhibitor cocktail (Roche). Gels were vacuum-dried, autoradiographed for 5 days using a BAS-IP TR 2025 E tritium storage phosphor screen (GE Healthcare), and visualized with Typhoon FLA 7000 (GE Healthcare).

[9] = tested on: Trypanosoma brucei bloodstream forms; experiment: Drug sensitivity assay, dose–response curves, T. brucei; format: cell-based; settings: for EC50: bloodstream forms, mean, n ≥ 3
From the text: as §1

For `O=C(NCCCCCCCCCC[P+](c1ccccc1)(c1ccccc1)c1ccccc1)c1ccc(-n2nc(-c3ccccc3O)nc2-c2ccccc2O)cc1.[Cl-]` [compound 14, triphenylphosphine-C10-DFX], the “mitochondrial membrane potential of T. brucei (relative to untreated)” value [1] was “less than 50%”, the EC50 [2] was 0.017 µM and the T. gondii selectivity [2] was 101. It also gave an EC50 [3] of 0.0104 µM, a T. gambiense selectivity [3] of 165 and an EC50 (Human BJ Fibroblast) of 1.71 µM. The EC50 [4] was 0.0412 µM, the B. divergens selectivity [4] was 42 and the EC50 [5] was 0.0548 µM. The P. falciparum selectivity [5] was 31, the “quantified mitochondrial morphology change (fragmented/collapsed) by IFA” value (T. gondii mitochondrion) was “caused the collapse of most T. gondii mitochondria” and the “morphology of the T. gondii mitochondrion” value (T. gondii mitochondrion) was “altered the morphology of the organelle”. The “T. gondii mitochondrial membrane potential, flow cytometric quantification of Mitotracker labeling” value [6] was “most impactful”, the “Mitotracker staining of T. gondii, microscopic observation” value [6] was “strong decrease in Mitotracker staining” and the EC50 [7] was 0.052 µM. The L. mexicana selectivity [7] was 33, the “impact on T. gondii replication (parasites per vacuole)” value (T. gondii tachyzoites) was “particularly strong” and the “change in overall protein-bound iron distribution” value [8] was “neither mitoDFX nor the nonchelating compound 15 did cause any detectable change”. It also gave an EC50 [9] of 0.0042 µM, an EC50 ([9]; listed as mitoDFX) of 0.004 µM and a T. brucei selectivity ([9]; relative to human BJ fibroblast EC50, listed as mitoDFX) greater than 300.
`CC(C)(C)OC(=O)NNc1ccc(C(=O)NCCCCCCCCCC[P+](c2ccccc2)(c2ccccc2)c2ccccc2)cc1.[Cl-]` [compound 15, triphenylphosphine-C10-NHCOBocFenylhydrazine] was tested, and the “mitochondrial membrane potential of T. brucei (relative to untreated)” value [1] was “less than 50%”, the EC50 [2] was 0.35 µM and the T. gondii selectivity [2] was 21. It also gave an EC50 [3] of 0.06 µM, a T. gambiense selectivity [3] of 122 and an EC50 (Human BJ Fibroblast) of 7.4 µM. The EC50 [4] was 0.0762 µM, the B. divergens selectivity [4] was 96 and the EC50 [5] was 0.311 µM. For the same molecule, the P. falciparum selectivity [5] was 23, the “morphology of the T. gondii mitochondrion” value (T. gondii mitochondrion) was “altered the morphology of the organelle” and the “T. gondii mitochondrial membrane potential, flow cytometric quantification of Mitotracker labeling” value [6] was “most impactful”. For the same molecule, the “Mitotracker staining of T. gondii, microscopic observation” value [6] was “strong decrease in Mitotracker staining”, the EC50 [7] was 0.348 µM and the L. mexicana selectivity [7] was 21. The “change in overall protein-bound iron distribution” value [8] was “neither mitoDFX nor the nonchelating compound 15 did cause any detectable change” and the EC50 [9] was 0.037 µM and 0.0375 µM.
